The structures appear in SMILES notation. Values joined by “and” are separate entries in the source; they are usually repeats but may differ in a detail not shown here. Equal values may be shown once. Toxic doses and inconclusive results are not listed.

The assay has as its system P388 leukemia ip, CD2F1 mice, survival T/C. The experiment in a line: NCI In Vivo Anticancer Drug Screen. Data for tumor model P388 Leukemia (intraperitoneal) in CD2F1 (CDF1) mice. To be noted: endpoint: median survival time, higher = longer survival. The method in brief:
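Mice carrying the transplanted tumor received test compound or vehicle. Survival was recorded in each group, and the value is the treated-group measurement divided by that of the vehicle-treated control group.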

Where [1] appears, read: dose: 50.0 mg/kg/injection, schedule: Q01DX005 (ip), vehicle: Klucel (hydroxypropylcellulose) (HPC).
Where [2] appears, read: dose: 100.0 mg/kg/injection, schedule: Q01DX005 (ip), vehicle: Klucel (hydroxypropylcellulose) (HPC).
Where [3] appears, read: dose: 200.0 mg/kg/injection, schedule: Q01DX005 (ip), vehicle: Klucel (hydroxypropylcellulose) (HPC).
[4] abbreviates: dose: 60.0 mg/kg/injection, schedule: Q01DX005 (ip), vehicle: Klucel (hydroxypropylcellulose) (HPC).
Setting [5] is: dose: 120.0 mg/kg/injection, schedule: Q01DX005 (ip), vehicle: Klucel (hydroxypropylcellulose) (HPC).
The mark [6] stands for this setting: dose: 240.0 mg/kg/injection, schedule: Q01DX005 (ip), vehicle: Klucel (hydroxypropylcellulose) (HPC).
Setting [7] is: dose: 25.0 mg/kg/injection, schedule: Q01DX009 (ip), vehicle: saline with Tween-80.
The mark [8] stands for this setting: dose: 50.0 mg/kg/injection, schedule: Q01DX009 (ip), vehicle: saline with Tween-80.
[9] abbreviates: dose: 100.0 mg/kg/injection, schedule: Q01DX009 (ip), vehicle: saline with Tween-80.
Setting [10] is: dose: 200.0 mg/kg/injection, schedule: Q01DX009 (ip), vehicle: saline with Tween-80.
Where [11] appears, read: dose: 12.5 mg/kg/injection, schedule: Q01DX009 (ip), vehicle: saline with Tween-80.
Setting [12] is: dose: 60.0 mg/kg/injection, schedule: Q01DX005 (ip), vehicle: saline with Tween-80.
The mark [13] stands for this setting: dose: 120.0 mg/kg/injection, schedule: Q01DX005 (ip), vehicle: saline with Tween-80.
The mark [14] stands for this setting: dose: 240.0 mg/kg/injection, schedule: Q01DX005 (ip), vehicle: saline with Tween-80.

For the compound `COc1ccc(N=Nc2c(-c3cccs3)nn(C(N)=S)c2C(F)(F)F)cc1`, the T/C reads like this: under setting [1], 97 % of control; under setting [2], 95 % of control; under setting [3], 97 % of control.

In the case of `C=C1C(=O)OC2C(OC(=O)CC(C)C)CCCC12` (stereo unspecified), the T/C was 94 % of control under setting [4], 92 % of control under setting [5] and 92 % of control under setting [6].

Consider `CN(C)c1ccc(C=C2C(=O)NC(=O)NC2=O)cc1`, for which the T/C is, setting by setting: under setting [7], 118 % of control; under setting [8], 113 % of control; under setting [9], 116 % of control; under setting [10], 106 % of control.

On to `FC(F)(F)C1=C(C(F)(F)F)OP23(OCCC(CO2)O3)O1` (stereo unspecified), for which the T/C by setting is: (dose: 50.0 mg/kg/injection, schedule: Q04DX003 (ip), vehicle: Klucel (hydroxypropylcellulose) (HPC)) 105 % of control; (dose: 100.0 mg/kg/injection, schedule: Q04DX003 (ip), vehicle: Klucel (hydroxypropylcellulose) (HPC)) 108 % of control; (dose: 200.0 mg/kg/injection, schedule: Q04DX003 (ip), vehicle: Klucel (hydroxypropylcellulose) (HPC)) 99 % of control; (dose: 400.0 mg/kg/injection, schedule: Q04DX003 (ip), vehicle: Klucel (hydroxypropylcellulose) (HPC)) 103 % of control.

On to `CN(c1ccccc1)P(=O)(N1CC1)N1CC1`, for which the T/C was 200 % of control (dose: 12.5 mg/kg/injection, schedule: Q01DX009 (ip), vehicle: saline sonified); 160 % of control and 195 % of control (dose: 25.0 mg/kg/injection, schedule: Q04DX003 (ip), vehicle: saline with Tween-80); 186 % of control (dose: 37.5 mg/kg/injection, schedule: Q04DX003 (ip), vehicle: saline with Tween-80).

On to `NCc1c(Cl)c(Cl)c(CN)c(Cl)c1Cl`, for which the T/C under setting [8] was 91 % of control; the T/C (dose: 50.0 mg/kg/injection, schedule: Q04DX003 (ip), vehicle: saline with Tween-80) is 91 % of control; the T/C under setting [9] is 91 % of control; the T/C (dose: 100.0 mg/kg/injection, schedule: Q04DX003 (ip), vehicle: saline with Tween-80) is 91 % of control; the T/C (dose: 200.0 mg/kg/injection, schedule: Q04DX003 (ip), vehicle: saline with Tween-80) was 87 % of control.

Take `Cc1cc(C)c(C(CC(=O)O)C(CC(=O)O)c2c(C)cc(C)cc2C)c(C)c1` (stereo unspecified): under setting [4], the T/C was 90 % of control.

In the case of `O=S1(=O)CN2C=CC=CC2=N1`, the T/C runs as follows: (dose: 6.25 mg/kg/injection, schedule: Q01DX009 (ip), vehicle: saline with Tween-80) 106 % of control; under setting [11], 104 % of control; under setting [7], 105 % of control; under setting [8], 105 % of control.

Take `CCCCCCCCCCCCCCCC[N+](C)(CCO)Cc1ccccc1` (stereo unspecified): the T/C by setting is: (dose: 6.25 mg/kg/injection, schedule: Q04DX002 (ip), vehicle: saline with Tween-80) 112 % of control; (dose: 12.5 mg/kg/injection, schedule: Q04DX002 (ip), vehicle: saline with Tween-80) 116 % of control.

Take `Cc1ccc(NC(=O)OCCN(C)C(=O)Nc2ccc(C)cc2C)c(C)c1`: the T/C by setting is: (dose: 30.0 mg/kg/injection, schedule: Q01DX005 (ip), vehicle: Klucel (hydroxypropylcellulose) (HPC)) 98 % of control; under setting [4], 103 % of control and 94 % of control; under setting [5], 98 % of control; under setting [6], 86 % of control.

On to `CCCCC(S)CS` (stereo unspecified), for which the T/C by setting is: (dose: 12.5 mg/kg/injection, schedule: Q01DX005 (ip), vehicle: saline with Tween-80) 107 % of control; (dose: 25.0 mg/kg/injection, schedule: Q01DX005 (ip), vehicle: saline with Tween-80) 103 % of control; (dose: 50.0 mg/kg/injection, schedule: Q01DX005 (ip), vehicle: saline with Tween-80) 107 % of control and 110 % of control.

On to `COc1ccc(C(C)c2cc(OC)c(OC)cc2OC)cc1` (stereo unspecified), for which the T/C is, setting by setting: under setting [12], 102 % of control; under setting [13], 102 % of control; under setting [14], 105 % of control.

Take `Cc1ccc(S(=O)(=O)NC(CC(N)=O)C(=O)O)cc1` (stereo unspecified): the T/C is 101 % of control (dose: 25.0 mg/kg/injection, schedule: Q01DX009 (ip), vehicle: other); 100 % of control (dose: 50.0 mg/kg/injection, schedule: Q01DX009 (ip), vehicle: other); 101 % of control (dose: 100.0 mg/kg/injection, schedule: Q01DX009 (ip), vehicle: other); 100 % of control (dose: 200.0 mg/kg/injection, schedule: Q01DX009 (ip), vehicle: other); 98 % of control (dose: 400.0 mg/kg/injection, schedule: Q01DX009 (ip), vehicle: other).

As for `CCC(CC)C1NC(C(=O)O)CS1` (stereo unspecified), the T/C reads like this: (dose: 50.0 mg/kg/injection, schedule: Q01DX009 (ip), vehicle: suspension in saline) 93 % of control; (dose: 100.0 mg/kg/injection, schedule: Q01DX009 (ip), vehicle: suspension in saline) 96 % of control; (dose: 200.0 mg/kg/injection, schedule: Q01DX009 (ip), vehicle: suspension in saline) 92 % of control.

For the compound `CC(=O)Oc1ccc2ccccc2c1-c1ccccn1`, the T/C was 101 % of control (dose: 12.5 mg/kg/injection, schedule: Q01DX001 (ip), vehicle: saline + alcohol); 99 % of control (dose: 25.0 mg/kg/injection, schedule: Q01DX001 (ip), vehicle: saline + alcohol); 100 % of control (dose: 50.0 mg/kg/injection, schedule: Q01DX001 (ip), vehicle: saline + alcohol).

Turning to `Cc1ccc(C)c2c(C#Cc3ccccc3)c3ccccc3c(C#Cc3ccccc3)c12`, the T/C was 96 % of control under setting [1], 90 % of control under setting [2] and 90 % of control under setting [3].

Regarding `CC(C)(Oc1ccc(Cl)cc1)C(=O)NC1CC(C)(C)N(O)C(C)(C)C1`, the T/C is 104 % of control under setting [12], 96 % of control under setting [13] and 91 % of control under setting [14].

`CC(=O)/C=C(\c1ccccc1)c1c(O)c2ccccc2oc1=O`: the T/C was 89 % of control under setting [8], 99 % of control under setting [9] and 114 % of control under setting [10].

Regarding `CCCCCCCCCCCCCCCC(=O)OOC(C)(C)C`, the T/C under setting [12] was 93 % of control, the T/C under setting [13] is 94 % of control and the T/C under setting [14] was 93 % of control.

`N#CCc1noc2ccccc12`: the T/C is 103 % of control under setting [11] and 109 % of control under setting [7].

For `O=[N+]([O-])c1ccc(F)c(Cl)c1`, the T/C runs as follows: (dose: 100.0 mg/kg/injection, schedule: Q04DX003 (ip), vehicle: other) 100 % of control; (dose: 200.0 mg/kg/injection, schedule: Q04DX003 (ip), vehicle: other) 100 % of control.

On to `CO[C@H]1/C=C/O[C@@]2(C)Oc3c(C)c(O)c4c(O)c(c(/C=N/N5C(C)CN(Cc6ccccc6)CC5C)c(O)c4c3C2=O)NC(=O)/C(C)=C\C=C\[C@H](C)[C@H](O)[C@@H](C)[C@@H](O)[C@@H](C)[C@H](OC(C)=O)[C@@H]1C` (stereo partly specified), for which the T/C reads like this: (dose: 100.0 mg/kg/injection, schedule: Q01DX009 (ip), vehicle: saline sonified) 90 % of control; (dose: 200.0 mg/kg/injection, schedule: Q01DX009 (ip), vehicle: saline sonified) 95 % of control.

For `Cn1c([N+](=O)[O-])cnc1-c1nc(/C=N/N2CCS(=O)(=O)CC2)cs1`, the T/C was 96 % of control under setting [7], 96 % of control under setting [8] and 90 % of control under setting [9].

As to `Cc1ccc(S(=O)(=O)/N=C2\C=CC=C\C2=C2\Sc3ccccc3N2C)cc1`, the T/C was 102 % of control (dose: 100.0 mg/kg/injection, schedule: Q04DX003 (ip), vehicle: saline); 99 % of control (dose: 200.0 mg/kg/injection, schedule: Q04DX003 (ip), vehicle: saline); 95 % of control (dose: 400.0 mg/kg/injection, schedule: Q04DX003 (ip), vehicle: saline).

Turning to `CSC(=S)n1nc(-c2cccs2)c(N=Nc2ccc([N+](=O)[O-])cc2)c1C(F)(F)F`, the T/C by setting is: under setting [12], 94 % of control; under setting [13], 88 % of control; under setting [14], 97 % of control.

Turning to `COC(=O)CC1(C(=O)OC)c2sc(C(C)C)cc2N2CCCC21` (stereo unspecified), the T/C reads like this: (dose: 10.0 mg/kg/injection, schedule: Q01DX009 (ip), vehicle: Klucel (hydroxypropylcellulose) (HPC)) 97 % of control; (dose: 20.0 mg/kg/injection, schedule: Q01DX009 (ip), vehicle: Klucel (hydroxypropylcellulose) (HPC)) 93 % of control; (dose: 40.0 mg/kg/injection, schedule: Q01DX009 (ip), vehicle: Klucel (hydroxypropylcellulose) (HPC)) 93 % of control; (dose: 80.0 mg/kg/injection, schedule: Q01DX009 (ip), vehicle: Klucel (hydroxypropylcellulose) (HPC)) 91 % of control.
